Results: patent publication US10053458B2, “Pyrimidine-2,4-diamine derivative and anticancer pharmaceutical composition comprising same as effective ingredient” (KOREA RESEARCH INSTITUTE OF CHEMICAL TECHNOLOGY, priority 2014, dated 2018)
Counter-ions that a name gives are not always drawn. Like-named read-outs stand apart in the source and are kept apart here.

Assays:
H3122 = assay: Cancer cell proliferation inhibition (SRB/MTS), H3122; conditions: read-out: H3122 GI50
Experimental: (§1) Cancer cell lines used in the experiments were all human-derived cancer cell lines, specifically H2228 and H3122, which are non-small cell lung cancer cell lines.
(§2) The cancer cell proliferation inhibition was measured using the MTS assay as follows. […] Each culture medium was placed in an incubator for 4 hours, taken out and left at room temperature for 10 minutes.

BaF3 EML4-ALK WT cells = assay: Cytotoxicity on BaF3 cell transfected with EML4-ALK WT (WST-1); conditions: Ba/F3 EML4-ALK, 72 h, read-out: BaF3 EML4-ALK WT, IC50 of the cytotoxicity
H2228 = assay: Cancer cell proliferation inhibition (SRB/MTS), H2228; conditions: read-out: H2228 GI50
Experimental: as §1, §2

Row | Compound | GI50 (H3122; Homo sapiens, NCI-H3122, 72 h) [nM] | IC50 (BaF3 EML4-ALK WT cells) [nM] | GI50 (H2228; Homo sapiens, NCI-H2228, 72 h) [nM] | GI50 (H3122) [nM] | GI50 (H2228) [nM] | GI50 (H3122; hydrochloride) [nM] | GI50 (H2228; hydrochloride) [nM]
1 | COc1cc2c(c(Br)c1Nc1ncc(Cl)c(Nc3ccccc3S(=O)(=O)C(C)C)n1)CCNC2(C)C [Example 87, 5-chloro-N4-(2-(isopropylsulfonyl)phenyl)-N2-(5-bromo-7-methoxy-1,1-dimethyl-1,2,3,4-tetrahydroisoquinolin-6-yl)pyrimidine-2,4-diamine] | < 50 | < 50 | < 50 | – | – | – | –
2 | COc1cc2c(cc1Nc1ncc(Cl)c(Nc3ccccc3S(=O)(=O)C(C)C)n1)CN(C)CC2(C)C [Example 91, 5-chloro-N4-(2-(isopropylsulfonyl)phenyl)-N2-(6-methoxy-2,4,4-trimethyl-1,2,3,4-tetrahydroisoquinolin-7-yl)pyrimidine-2,4-diamine] | < 50 | < 50 | < 50 | – | – | – | –
3 | CC(C)Oc1cc2c(cc1Nc1ncc(Cl)c(Nc3ccccc3S(=O)(=O)C(C)C)n1)CCNC2(C)C [Example 71, 5-chloro-N4-(2-(isopropylsulfonyl)phenyl)-N2-(7-isopropoxy-1,1-dimethyl-1,2,3,4-tetrahydroisoquinolin-6-yl)pyrimidine-2,4-diamine] | < 50 | < 50 | < 50 | – | – | – | –
4 | COc1cc2c(cc1Nc1ncc(Cl)c(Nc3ccccc3S(=O)(=O)C(C)C)n1)CNC2 [Example 1, 5-chloro-N4-(2-(isopropylsulfonyl)phenyl)-N2-(6-methoxyisoindolin-5-yl)pyrimidine-2,4-diamine] | < 50 | < 50 | 15 | – | – | – | –
5 | CC(C)Oc1cc2c(cc1Nc1ncc(Cl)c(Nc3ccccc3S(=O)(=O)C(C)C)n1)CCN(C(=O)C(F)(F)F)C2 [Example 17, 1-(6-(5-chloro-4-(2-(isopropylsulfonyl)phenylamino)pyrimidin-2-yl)amino-7-isopropoxy-3,4-dihydroisoquinolin-2(1H)-yl)-2,2,2-trifluoroethane-1-one] | < 50 | < 50 | < 50 | – | – | – | –
6 | COc1cc2c(cc1Nc1ncc(Cl)c(Nc3ccccc3S(=O)(=O)C(C)C)n1)CN(C)CC2 [Example 35, 5-chloro-N4-(2-(isopropylsulfonyl)phenyl)-N2-(6-methoxy-2-methyl-1,2,3,4-tetrahydroisoquinolin-7-yl)pyrimidine-2,4-diamine] | < 50 | – | < 50 | – | – | – | –
7 | COc1cc2c(cc1Nc1ncc(Cl)c(Nc3ccccc3S(=O)(=O)C(C)C)n1)CNCC21CC1 [Example 96, 5-chloro-N4-(2-(isopropylsulfonyl)phenyl)-N2-(6-methoxy-2,3-dihydro-1H-spiro(cyclopropane-1,4-isoquinolin)-7-yl)pyrimidine-2,4-diamine] | < 50 | < 50 | < 50 | – | – | – | –
8 | COc1cc2c(cc1Nc1ncc(Cl)c(Nc3ccccc3S(=O)(=O)C(C)C)n1)CNCC2(C)C [Example 75, 5-chloro-N4-(2-(isopropylsulfonyl)phenyl)-N2-(6-methoxy-4,4-dimethyl-1,2,3,4-tetrahydroisoquinolin-7-yl)pyrimidine-2,4-diamine] | < 50 | < 50 | < 50 | – | – | – | –
9 | COc1cc2c(cc1Nc1ncc(Cl)c(Nc3ccccc3S(=O)(=O)C(C)C)n1)C(=O)NCC2 [Example 44] | < 50 | < 50 | < 50 | – | – | – | –
10 | COc1cc2c(cc1Nc1ncc(Cl)c(Nc3ccccc3S(=O)(=O)C(C)C)n1)CCNC2C (stereo not drawn) [Example 25] | 8.9 | – | < 50 | – | – | – | –
11 | COc1cc2c(cc1Nc1ncc(Cl)c(Nc3ccccc3S(=O)(=O)C(C)C)n1)C1(CCCC1)CNC2 [Example 14, 5-chloro-N4-(2-(isopropylsulfonyl)phenyl)-N2-(7-methoxy-2,3-dihydro-1H-spiro[cyclopentane-1,4-isoquinoline]-6-yl)pyrimidine-2,4-diamine] | < 50 | – | < 50 | – | – | – | –
12 | COc1cc2c(cc1Nc1ncc(Cl)c(Nc3ccccc3S(=O)(=O)C(C)C)n1)CCN1C(=O)CNCC21 (stereo not drawn) [Example 84] | < 50 | – | < 50 | – | – | – | –
13 | COc1cc2c(cc1Nc1ncc(Cl)c(Nc3ccccc3S(=O)(=O)C(C)C)n1)CN(C(=O)CN(C)C)CC2(C)C [Example 94] | < 50 | < 50 | < 50 | – | – | – | –
14 | COc1cc2c(cc1Nc1ncc(Cl)c(Nc3ccccc3S(=O)(=O)C(C)C)n1)C1(CCCC1)CN(C(=O)C(F)(F)F)C2 [Example 13, 1-(6-(5-chloro-4-(2-(isopropylsulfonyl)phenylamino)pyrimidin-2-yl)amino-7-methoxy-1H-spiro[cyclopentane-1,4-isoquinoline]-2(3H)-yl)-2,2,2-trifluoroethane-1-one] | < 50 | < 50 | < 50 | – | – | – | –
15 | CCOc1cc2c(cc1Nc1ncc(Cl)c(Nc3ccccc3S(=O)(=O)C(C)C)n1)CN(CC)CC2(C)C [Example 81, 5-chloro-N4-(2-(isopropylsulfonyl)phenyl)-N2-(6-ethoxy-2-ethyl-4,4-dimethyl-1,2,3,4-tetrahydroisoquinolin-7-yl)pyrimidine-2,4-diamine] | < 50 | < 50 | < 50 | – | – | – | –
16 | COc1cc2c(cc1Nc1ncc(Cl)c(Nc3ccccc3S(=O)(=O)C(C)C)n1)CNCC21CCCC1 [Example 83, 5-chloro-N4-(2-(isopropylsulfonyl)phenyl)-N2-(6-methoxy-2,3-dihydro-1H-spiro(cyclopentane-1,4-isoquinolin)-7-yl)pyrimidine-2,4-diamine] | < 50 | < 50 | < 50 | – | – | – | –
17 | CCC1(C)NCCc2cc(Nc3ncc(Cl)c(Nc4ccccc4S(=O)(=O)C(C)C)n3)c(OC)cc21 (stereo not drawn) [Example 73, 5-chloro-N4-(2-(isopropylsulfonyl)phenyl)-N2-(l-ethyl-7-methoxy-1-methyl-1,2,3,4-tetrahydroisoquinolin-6-yl)pyrimidine-2,4-diamine] | < 50 | < 50 | < 50 | – | – | – | –
18 | COc1cc2c(cc1Nc1ncc(Cl)c(Nc3ccccc3S(=O)(=O)C(C)C)n1)C1CNCCN1CC2(C)C (stereo not drawn) [Example 86, 5-chloro-N4-(2-(isopropylsulfonyl)phenyl)-N2-(9-methoxy-7,7-dimethyl-1,3,4,6,7,11b-hexahydro-2H-pyrazino[2,1-a]isoquinolin-10-yl)pyrimidine-2,4-diamine] | < 50 | < 50 | < 50 | – | – | – | –
19 | COc1cc2c(cc1Nc1ncc(Cl)c(Nc3ccccc3S(=O)(=O)C(C)C)n1)C(C)NCC2 (stereo not drawn) [Example 46] | < 50 | < 50 | < 50 | – | – | – | –
20 | COc1cc2c(cc1Nc1ncc(Cl)c(Nc3ccccc3S(=O)(=O)C(C)C)n1)C(C)(C)NCC2 [Example 72, 5-chloro-N4-(2-(isopropylsulfonyl)phenyl)-N2-(6-methoxy-1,1-dimethyl-1,2,3,4-tetrahydroisoquinolin-7-yl)pyrimidine-2,4-diamine] | < 50 | < 50 | < 50 | – | – | – | –
21 | C[C@@H](Oc1cc(-c2cnn(C3CCNCC3)c2)cnc1N)c1c(Cl)ccc(F)c1Cl [Comparative Example 1, Crizotinib, reference compound] | 280 | – | 85 | – | – | – | –
22 | COc1cc2c(cc1Nc1ncc(Cl)c(Nc3ccccc3S(=O)(=O)C(C)C)n1)CCN(C1CCNCC1)C2 [Example 24] | < 50 | < 50 | < 50 | – | – | – | –
23 | COc1cc2c(cc1Nc1ncc(Cl)c(Nc3ccccc3S(=O)(=O)C(C)C)n1)CN(C(=O)CO)CC2(C)C [Example 95] | < 50 | < 50 | < 50 | – | – | – | –
24 | COc1cc2c(cc1Nc1ncc(Cl)c(Nc3ccccc3S(=O)(=O)C(C)C)n1)CCNC2C(F)(F)F (stereo not drawn) [Example 26] | < 50 | < 50 | < 50 | – | – | – | –
25 | COc1cc2c(cc1Nc1ncc(Cl)c(Nc3ccccc3S(=O)(=O)C(C)C)n1)C1(CCCCC1)CNC2 [Example 16, 5-chloro-N4-(2-(isopropylsulfonyl)phenyl)-N2-(7-methoxy-2,3-dihydro-1H-spiro[cyclohexane-1,4-isoquinoline]-6-yl)pyrimidine-2,4-diamine] | < 50 | < 50 | < 50 | – | – | – | –
26 | CC(C)COc1cc2c(cc1Nc1ncc(Cl)c(Nc3ccccc3S(=O)(=O)C(C)C)n1)CCN(C(=O)C(F)(F)F)C2 [Example 19, 1-(6-(5-chloro-4-(2-(isopropylsulfonyl)phenylamino)pyrimidin-2-yl)amino-7-isobutoxy-3,4-dihydroisoquinolin-2(1H)-yl)-2,2,2-trifluoroethane-1-one] | < 50 | < 50 | < 50 | – | – | – | –
27 | CCC1NCCc2cc(Nc3ncc(Cl)c(Nc4ccccc4S(=O)(=O)C(C)C)n3)c(OC)cc21 (stereo not drawn) [Example 27] | 8.4 | – | < 50 | – | – | – | –
28 | COc1cc2c(cc1Nc1ncc(Cl)c(Nc3ccccc3S(=O)(=O)C(C)C)n1)CCNC2(C)C [Example 33, 5-chloro-N4-(2-(isopropylsulfonyl)phenyl)-N2-(7-methoxy-1,1-dimethyl-1,2,3,4-tetrahydroisoquinolin-6-yl)pyrimidine-2,4-diamine] | – | – | – | 11 | 18 | – | –
29 | COc1cc2c(cc1Nc1ncc(Cl)c(Nc3ccccc3S(=O)(=O)C(C)C)n1)C1CNCC(=O)N1CC2 (stereo not drawn) [Example 97] | < 50 | – | < 50 | – | – | – | –
30 | COc1cc2c(cc1Nc1ncc(Cl)c(Nc3ccccc3S(=O)(=O)C(C)C)n1)CCNC2(C)C [Example 101, 5-chloro-N4-(2-(isopropylsulfonyl)phenyl)-N2-(7-methoxy-1,1-dimethyl-1,2,3,4-tetrahydroisoquinolin-6-yl)pyrimidine-2,4-diamine hydrochloride] | – | – | – | – | – | < 50 | < 50
